Assay results reported in ChEMBL document CHEMBL4837265 (ACS Med Chem Lett, 2021).
Active and inactive are the calls of the source. The calls are words filed in the database; no cut-off is given here.

Tests used:
Format in all cases: cell-based
Glucocorticoid receptor [1] = target: T1, Glucocorticoid receptor (Rattus norvegicus, UniProt P06536); assay: Agonist activity at glucocorticoid receptor in rat INS-1 832/13 cells transfected with CCL2-promoter luciferase plasmid construct assessed as reduction in IL-1 beta induced inflammation by luciferase reporter gene assay
T1 sequence (P06536 whole entry): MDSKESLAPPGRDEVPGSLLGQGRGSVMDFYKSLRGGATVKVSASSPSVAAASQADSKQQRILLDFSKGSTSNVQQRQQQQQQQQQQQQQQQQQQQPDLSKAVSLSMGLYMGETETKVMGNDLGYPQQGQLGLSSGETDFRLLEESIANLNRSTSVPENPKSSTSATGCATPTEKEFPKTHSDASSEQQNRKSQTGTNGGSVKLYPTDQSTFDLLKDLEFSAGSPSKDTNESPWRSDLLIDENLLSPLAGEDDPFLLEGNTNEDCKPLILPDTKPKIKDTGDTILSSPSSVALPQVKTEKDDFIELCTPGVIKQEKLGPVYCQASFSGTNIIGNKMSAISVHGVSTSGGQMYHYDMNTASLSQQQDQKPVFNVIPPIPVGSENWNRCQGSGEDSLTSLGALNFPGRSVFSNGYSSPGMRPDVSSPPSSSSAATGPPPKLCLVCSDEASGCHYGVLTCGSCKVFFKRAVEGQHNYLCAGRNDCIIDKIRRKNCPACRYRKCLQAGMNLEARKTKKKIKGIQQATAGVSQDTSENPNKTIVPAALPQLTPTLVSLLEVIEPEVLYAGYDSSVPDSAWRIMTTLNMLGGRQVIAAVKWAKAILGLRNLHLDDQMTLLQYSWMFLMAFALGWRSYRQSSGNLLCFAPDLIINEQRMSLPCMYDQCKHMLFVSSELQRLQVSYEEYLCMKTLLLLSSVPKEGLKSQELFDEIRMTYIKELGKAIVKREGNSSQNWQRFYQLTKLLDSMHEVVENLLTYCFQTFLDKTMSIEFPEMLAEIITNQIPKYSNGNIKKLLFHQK

Glucocorticoid receptor [2] = target: T1, Glucocorticoid receptor; assay: Agonist activity at glucocorticoid receptor in rat INS-1 832/13 cells transfected with 3XGRE-promoter luciferase plasmid construct assessed as induction of receptor transactivation by luciferase reporter gene assay
[3] = target: T2, Glucocorticoid receptor (Rattus norvegicus) (UniProt P06536); assay: Agonist activity at glucocorticoid receptor in rat INS-1 832/13 cells assessed as inhibition of glucose-stimulated insulin secretion at 100 nM incubated for 18 hrs by ELISA
T2 sequence (whole entry): T1 sequence (P06536 whole entry)

Compound | IC50 (Glucocorticoid receptor [1]) | EC50 (Glucocorticoid receptor [2]) | inhibition [3] | inhibition ([3]; filed as agonist)
Cc1ccc(-n2ncc3c2C=C2CCC[C@H](C(C)(O)c4ccccc4)[C@@]2(C)C3)cc1 (single isomer, unassigned) | 31.6 nM | 1260 nM |  | 
Cc1ccc(-n2ncc3c2C=C2CCC[C@H](C(C)(O)c4ccc(F)cc4)[C@@]2(C)C3)cc1 (single isomer, unassigned) | 631 nM | 316 nM |  | 
COc1ccc(-n2ncc3c2C=C2CCC[C@H]([C@@H](O)c4ccc(F)cc4)[C@@]2(C)C3)cc1 | 79.4 nM | 15800 nM |  | 
COc1ccc(-n2ncc3c2C=C2CCC[C@H]([C@@H](O)c4ccsc4)[C@@]2(C)C3)cc1 | 501 nM | 10000 nM |  | 
COc1ccc(-n2ncc3c2C=C2CCC[C@H]([C@H](C)O)[C@@]2(C)C3)cc1 | 0.158 nM | 251 nM |  | 
C[C@]12Cc3cnn(-c4ccc(F)cc4)c3C=C1CCC[C@@H]2[C@@H](O)CC#N | 1580 nM | 2510 nM |  | 
COc1ccc(-n2ncc3c2C=C2CCC[C@H](C(C)(O)c4ccc(F)cc4)[C@@]2(C)C3)cc1 (single isomer, unassigned) | 251 nM | 126 nM |  | 
COc1ccc(-n2ncc3c2C=C2CCC[C@H](C(C)(C)O)[C@@]2(C)C3)cc1 | 2510 nM | 79.4 nM |  | 
COc1cc([C@@](C)(O)[C@H]2CCCC3=Cc4c(cnn4-c4ccc(F)cc4)C[C@@]32C)cc(F)c1F | 2 nM | 6.31 nM |  | 
Cc1ccc(-n2ncc3c2C=C2CCC[C@H]([C@@H](O)c4ccccc4)[C@@]2(C)C3)cc1 | 398 nM | 10000 nM |  | 
CC(C)(O)[C@H]1CCCC2=Cc3c(cnn3-c3ccc(F)cc3)C[C@@]21C | 39.8 nM | 63.1 nM | inactive | 

Second part, the compound after the results:

IC50 (Glucocorticoid receptor [1]) | EC50 (Glucocorticoid receptor [2]) | inhibition [3] | inhibition ([3]; filed as agonist) | Compound
6.31 nM | 63.1 nM | inactive |  | C[C@H](O)[C@H]1CCCC2=Cc3c(cnn3-c3ccc(F)cc3)C[C@@]21C
1260 nM | 10000 nM |  |  | COc1ccc(-n2ncc3c2C=C2CCC[C@H]([C@@H](O)c4ccccc4)[C@@]2(C)C3)cc1
1260 nM | 10000 nM |  |  | COc1ccc(-n2ncc3c2C=C2CCC[C@H](C(C)(O)c4cc(F)c(F)c(OC)c4)[C@@]2(C)C3)cc1 (single isomer, unassigned)
5.01 nM | 126 nM |  |  | C[C@]12Cc3cnn(-c4ccc(F)cc4)c3C=C1CCC[C@@H]2[C@@H](O)c1ccsc1
5.01 nM | 15.8 nM |  |  | C[C@]12Cc3cnn(-c4ccc(F)cc4)c3C=C1CCC[C@@H]2[C@](C)(O)c1ccc(F)cc1
1580 nM | 10000 nM |  |  | COc1ccc(-n2ncc3c2C=C2CCC[C@H](C(C)(O)c4ccsc4)[C@@]2(C)C3)cc1 (single isomer, unassigned)
39.8 nM | 10000 nM |  |  | Cc1ccc(-n2ncc3c2C=C2CCC[C@H]([C@@H](O)c4ccsc4)[C@@]2(C)C3)cc1
100 nM | 1580 nM |  |  | Cc1ccc(-n2ncc3c2C=C2CCC[C@H](C(C)(O)c4ccsc4)[C@@]2(C)C3)cc1 (single isomer, unassigned)
7.94 nM | 3.98 nM |  | Active | C[C@]12Cc3cnn(-c4ccc(F)cc4)c3C=C1CCC[C@@H]2[C@](C)(O)c1ccccc1
0.251 nM | 794 nM |  |  | CC(C)(C)[C@H](O)[C@H]1CCCC2=Cc3c(cnn3-c3ccc(F)cc3)C[C@@]21C
39.8 nM | 100 nM | inactive |  | C[C@]12Cc3cnn(-c4ccc(F)cc4)c3C=C1CCC[C@@H]2[C@@H](O)c1ccccc1
15.8 nM | 63.1 nM |  |  | COc1cc([C@H](O)[C@H]2CCCC3=Cc4c(cnn4-c4ccc(F)cc4)C[C@@]32C)cc(F)c1F
63.1 nM | 0.398 nM |  |  | Cc1ccc(-n2ncc3c2C=C2CCC[C@H](C(C)(C)O)[C@@]2(C)C3)cc1
251 nM | 31600 nM |  |  | Cc1ccc(-n2ncc3c2C=C2CCC[C@H]([C@@H](O)c4ccc(F)cc4)[C@@]2(C)C3)cc1
158 nM | 100000 nM |  |  | COc1cc([C@H](O)[C@H]2CCCC3=Cc4c(cnn4-c4ccc(C)cc4)C[C@@]32C)cc(F)c1F
501 nM | 5010 nM |  |  | COc1ccc(-n2ncc3c2C=C2CCC[C@H](C(C)(O)c4ccccc4)[C@@]2(C)C3)cc1 (single isomer, unassigned)
0.2 nM | 1580 nM |  |  | Cc1ccc(-n2ncc3c2C=C2CCC[C@H]([C@H](C)O)[C@@]2(C)C3)cc1
